For assay [1], the target named is T1, Tyrosine-protein phosphatase non-receptor type 1 (Homo sapiens, UniProt P18031).
T1 sequence (P18031 whole entry): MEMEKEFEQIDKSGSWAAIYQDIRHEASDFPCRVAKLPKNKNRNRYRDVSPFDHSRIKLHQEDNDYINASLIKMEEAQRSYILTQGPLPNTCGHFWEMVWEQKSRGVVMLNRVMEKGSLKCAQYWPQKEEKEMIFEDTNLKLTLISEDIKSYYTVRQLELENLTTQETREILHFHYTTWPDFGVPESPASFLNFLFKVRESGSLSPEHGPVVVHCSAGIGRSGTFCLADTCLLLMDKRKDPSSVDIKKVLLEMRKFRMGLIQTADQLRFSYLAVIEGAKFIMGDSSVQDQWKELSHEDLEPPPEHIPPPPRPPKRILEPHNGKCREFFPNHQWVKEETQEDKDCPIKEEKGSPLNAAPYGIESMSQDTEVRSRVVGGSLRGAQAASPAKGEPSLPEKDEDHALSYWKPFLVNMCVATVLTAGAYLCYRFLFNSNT
Description: Inhibition of recombinant human PTP1B expressed in Escherichia coli using […] as substrate preincubated with substrate for 5 mins followed by enzyme addition.

Assay [2] addresses T2, Tyrosine-protein phosphatase non-receptor type 2 (Homo sapiens, UniProt P17706).
T2 sequence (P17706 whole entry): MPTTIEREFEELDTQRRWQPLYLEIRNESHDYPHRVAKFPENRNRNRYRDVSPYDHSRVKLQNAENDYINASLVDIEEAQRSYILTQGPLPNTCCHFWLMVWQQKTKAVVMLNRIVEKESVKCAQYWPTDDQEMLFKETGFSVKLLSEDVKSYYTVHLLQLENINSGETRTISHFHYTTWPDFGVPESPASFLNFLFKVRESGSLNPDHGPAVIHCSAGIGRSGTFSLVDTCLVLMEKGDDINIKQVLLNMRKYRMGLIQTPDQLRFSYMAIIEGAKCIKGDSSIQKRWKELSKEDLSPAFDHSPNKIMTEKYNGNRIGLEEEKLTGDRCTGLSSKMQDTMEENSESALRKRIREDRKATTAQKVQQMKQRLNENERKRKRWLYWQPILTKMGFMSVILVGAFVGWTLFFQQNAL
Put plainly: Inhibition of recombinant human N-terminal GST-tagged TCPTP catalytic domain (2 to 315 residues) expressed in Escherichia coli using […] as substrate preincubated with substrate for 5 mins followed by enzyme addition.

Assay [3] has as its target T3, Tyrosine-protein phosphatase non-receptor type 9 (Homo sapiens, UniProt P43378).
T3 sequence (P43378 whole entry): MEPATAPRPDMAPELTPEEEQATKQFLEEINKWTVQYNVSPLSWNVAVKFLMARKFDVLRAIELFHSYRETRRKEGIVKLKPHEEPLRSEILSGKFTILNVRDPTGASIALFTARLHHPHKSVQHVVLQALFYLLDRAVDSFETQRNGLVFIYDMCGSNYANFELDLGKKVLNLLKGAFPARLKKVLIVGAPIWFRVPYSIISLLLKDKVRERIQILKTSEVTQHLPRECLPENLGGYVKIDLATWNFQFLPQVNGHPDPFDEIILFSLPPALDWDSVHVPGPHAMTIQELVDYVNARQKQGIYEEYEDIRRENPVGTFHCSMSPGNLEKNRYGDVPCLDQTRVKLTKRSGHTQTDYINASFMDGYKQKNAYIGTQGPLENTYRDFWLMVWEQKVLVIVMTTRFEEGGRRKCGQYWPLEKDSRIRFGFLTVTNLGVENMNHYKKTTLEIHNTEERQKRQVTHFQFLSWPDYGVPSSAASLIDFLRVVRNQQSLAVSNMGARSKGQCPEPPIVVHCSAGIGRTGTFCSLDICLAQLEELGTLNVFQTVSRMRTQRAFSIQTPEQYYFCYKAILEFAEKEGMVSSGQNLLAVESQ
Put plainly: Inhibition of recombinant human N-terminal GST-tagged MEG2 catalytic domain (285 to 593 residues) expressed in Escherichia coli using […] as substrate preincubated with substrate for 5 mins followed by enzyme addition.

The target of assay [4] is T4, Tyrosine-protein phosphatase non-receptor type 4 (Homo sapiens, UniProt P29074).
T4 sequence (P29074 whole entry): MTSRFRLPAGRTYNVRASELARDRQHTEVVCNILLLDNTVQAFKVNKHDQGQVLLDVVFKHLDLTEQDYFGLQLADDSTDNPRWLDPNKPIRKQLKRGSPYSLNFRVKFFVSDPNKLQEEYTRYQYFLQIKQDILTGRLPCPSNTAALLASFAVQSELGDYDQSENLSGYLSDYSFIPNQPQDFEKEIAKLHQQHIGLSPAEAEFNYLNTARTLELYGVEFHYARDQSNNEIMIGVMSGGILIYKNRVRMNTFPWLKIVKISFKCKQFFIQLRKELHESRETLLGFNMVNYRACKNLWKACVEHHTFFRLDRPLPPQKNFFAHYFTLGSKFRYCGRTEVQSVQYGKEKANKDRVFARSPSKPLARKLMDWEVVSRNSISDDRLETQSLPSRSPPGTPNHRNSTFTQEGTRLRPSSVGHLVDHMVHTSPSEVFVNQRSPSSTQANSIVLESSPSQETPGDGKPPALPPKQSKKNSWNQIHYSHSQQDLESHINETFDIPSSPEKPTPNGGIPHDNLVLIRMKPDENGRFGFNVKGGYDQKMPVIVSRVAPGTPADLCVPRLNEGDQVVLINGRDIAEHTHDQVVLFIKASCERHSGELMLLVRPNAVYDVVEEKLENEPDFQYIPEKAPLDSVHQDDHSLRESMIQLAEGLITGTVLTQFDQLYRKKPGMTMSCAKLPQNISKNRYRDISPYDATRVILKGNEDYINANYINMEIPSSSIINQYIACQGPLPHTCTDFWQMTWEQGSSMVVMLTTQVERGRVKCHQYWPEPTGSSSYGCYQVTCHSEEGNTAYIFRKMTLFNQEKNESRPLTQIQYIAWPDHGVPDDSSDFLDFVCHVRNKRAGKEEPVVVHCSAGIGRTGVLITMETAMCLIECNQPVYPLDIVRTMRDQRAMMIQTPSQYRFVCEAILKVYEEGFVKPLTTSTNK
Description: Inhibition of recombinant human N-terminal GST-tagged MEG1 catalytic domain (637 to 926 residues) expressed in Escherichia coli using […] as substrate preincubated with substrate for 5 mins followed by enzyme addition.

Assay [5] has as its target T5, Tyrosine-protein phosphatase non-receptor type 11 (Homo sapiens, UniProt Q06124).
T5 sequence (Q06124 whole entry): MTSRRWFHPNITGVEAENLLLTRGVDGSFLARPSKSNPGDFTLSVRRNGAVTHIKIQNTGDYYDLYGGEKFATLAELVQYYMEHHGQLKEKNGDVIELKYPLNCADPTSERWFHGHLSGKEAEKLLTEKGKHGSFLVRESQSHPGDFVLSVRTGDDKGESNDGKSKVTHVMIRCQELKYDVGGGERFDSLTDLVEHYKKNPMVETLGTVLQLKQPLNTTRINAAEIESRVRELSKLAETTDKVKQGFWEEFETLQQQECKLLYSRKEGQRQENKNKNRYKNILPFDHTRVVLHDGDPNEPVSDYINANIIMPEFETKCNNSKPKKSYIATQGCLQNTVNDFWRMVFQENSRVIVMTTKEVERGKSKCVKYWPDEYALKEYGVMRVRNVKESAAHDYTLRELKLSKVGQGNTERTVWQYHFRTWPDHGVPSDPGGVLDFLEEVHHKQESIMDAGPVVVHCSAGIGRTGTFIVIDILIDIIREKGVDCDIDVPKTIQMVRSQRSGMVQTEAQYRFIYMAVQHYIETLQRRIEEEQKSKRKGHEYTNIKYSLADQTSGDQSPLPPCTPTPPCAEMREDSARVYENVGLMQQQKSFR
Put plainly: Inhibition of recombinant human SHP2 expressed in Escherichia coli using […] as substrate preincubated with substrate for 5 mins followed by enzyme addition.

Assay [6] concerns the target T1, Tyrosine-protein phosphatase non-receptor type 1. Description: Competitive inhibition of recombinant human PTP1B expressed in Escherichia coli using varying levels of […] as substrate by Lineweaver-burk plot analysis.
The species entered for assay [7] is Homo sapiens. Put plainly: Selectivity ratio of IC50 for recombinant human N-terminal GST-tagged TCPTP catalytic domain (2 to 315 residues) expressed in Escherichia coli to IC50 for recombinant human PTP1B expressed in Escherichia coli.
For assay [8], the species on record is Homo sapiens. Description: Selectivity ratio of IC50 for recombinant human N-terminal GST-tagged MEG2 catalytic domain (285 to 593 residues) expressed in Escherichia coli to IC50 for recombinant human PTP1B expressed in Escherichia coli.
The species named for assay [9] is Homo sapiens. Put plainly: Selectivity ratio of IC50 for recombinant human N-terminal GST-tagged MEG1 catalytic domain (637 to 926 residues) expressed in Escherichia coli to IC50 for recombinant human PTP1B expressed in Escherichia coli.
For assay [10], the species on record is Homo sapiens. Description: Selectivity ratio of IC50 for recombinant human SHP2 expressed in Escherichia coli to IC50 for recombinant human PTP1B expressed in Escherichia coli.

The results in this text go back to ChEMBL document CHEMBL4422658, “Calixarene-based phosphinic acids as inhibitors of protein tyrosine phosphatases” (Bioorg Med Chem Lett, 2019).

SMILES strings stand for the structures. pIC50, pKi: −log10 of the molar value.

As to `O=P(O)(Cc1cc2c(O)c(c1)S(=O)(=O)c1cc(CP(=O)(O)c3ccccc3)cc(c1O)S(=O)(=O)c1cc(CP(=O)(O)c3ccccc3)cc(c1O)S(=O)(=O)c1cc(CP(=O)(O)c3ccccc3)cc(c1O)S2(=O)=O)c1ccccc1`, the pIC50 (commonly −log10 of the IC50, conventionally taken in molar units) was 7.10 in assay [1]; 6.55 in [2]; 6.39 in assay [3]; 6.74 in assay [4]; 6.30 in [5]. For the same compound, the pKi (commonly −log10 of the Ki, conventionally taken in molar units) in assay [6] was 7.49.

With `O=P(O)(Cc1cc2c(O)c(c1)Sc1cc(CP(=O)(O)c3ccccc3)cc(c1O)Sc1cc(CP(=O)(O)c3ccccc3)cc(c1O)Sc1cc(CP(=O)(O)c3ccccc3)cc(c1O)S2)c1ccccc1`, the pIC50 is 6.42 in [1]; 5.17 in assay [2]; 5.23 in assay [3]; 5.27 in assay [4]; 5.43 in assay [5]. In addition, the Ratio IC50 in the assay listed under Homo sapiens [7] is 15; in the assay listed under Homo sapiens [8], 10 to 18; in the assay listed under Homo sapiens [9] it was 10 to 18; in the assay filed under Homo sapiens [10] it was 10 to 18. The pKi in assay [6] was 6.85.

With `O=P(O)(Cc1cc2c(O)c(c1)Cc1cc(CP(=O)(O)c3ccccc3)cc(c1O)Cc1cc(CP(=O)(O)c3ccccc3)cc(c1O)Cc1cc(CP(=O)(O)c3ccccc3)cc(c1O)C2)c1ccccc1`, the pIC50 in assay [1] was 5.55; in assay [2], 4.70; in assay [3] it was 5.62; in assay [4], 4.52; in assay [5], 5.34.

In the case of `CCOP(=O)(O)Cc1cc2c(O)c(c1)Sc1cc(CP(=O)(O)OCC)cc(c1O)Sc1cc(CP(=O)(O)OCC)cc(c1O)Sc1cc(CP(=O)(O)OCC)cc(c1O)S2`, in the assay listed under Homo sapiens [7], the Ratio IC50 came to 15.
